From patent US20200369728A1, “PEPTIDOMIMETIC MACROCYCLES AND USES THEREOF” (Aileron Therapeutics, Inc., priority 2015, published 2020)
pEC50: −log10 of the molar value. Bridge positions count the residues as written; N and C are the ends. Square brackets hold non-standard residues; d marks the D form. Peptide text beside a SMILES is read from it. R8 = C=CCCCCCC[C@@](C)(N)C(=O)O; S5 = C=CCCC[C@](C)(N)C(=O)O; Aib = CC(C)(N)C(=O)O

How the values were obtained:
[1] = test system: Caspase 3; test: Caspase 3 detection assay in SJSA1 cells; format: cell-based; conditions: SJSA1, 48 h, Caspase 3 activation over DMSO-treated cells
[2] = test system: SJSA-1 cells; test: Cell lysis by peptidomimetic macrocycles (LDH release); format: cell-based; conditions: SJSA-1, 1 h
How it was run: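 SJSA-1 cells plated the day before, switched to RPMI with 1% FBS, then exposed 1 h at 37 °C to macrocycle at final 50 μM to 6.25 μM in 0.5% DMSO. LDH released into the supernatant was measured by kit. Controls: 0.5% DMSO (non-lytic), 10 μM melittin and 1% Triton X-100 (lytic).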

[3] = test system: RKO; test: Cell viability assay (MTT), RKO; conditions: read-out: RKO EC50 (72 h)

Structure (SMILES)	caspase 0.3 μM [1]	caspase 1 μM [1]	caspase 3 μM [1]	caspase 10 μM [1]	caspase 30 μM [1]	6.25 μM % Lysed cells (1 h LDH) [2] [%]	25 μM % Lysed cells (1 h LDH) [2] [%]	50 μM % Lysed cells (1 h LDH) [2] [%]	pEC50 [3]
CC(=O)N[C@@H](C)C(=O)N[C@@H](CC(C)C)C(=O)N[C@H](C(=O)N[C@@H](Cc1ccccc1)C(=O)N[C@]1(C)CCCCCCC=CCCC[C@@](C)(C(=O)N[C@@H](CO)C(=O)N[C@@H](C)C(=O)N[C@@H](C)C(=O)N[C@H](C)C(N)=O)NC(=O)[C@H](CC2CCC2)NC(=O)[C@H](CCC(N)=O)NC(=O)[C@H](C)NC(=O)[C@H](Cc2c[nH]c3ccccc23)NC(=O)[C@H](Cc2ccc(O)cc2)NC(=O)[C@H](CCC(=O)O)NC1=O)[C@@H](C)O (single isomer, unassigned) [compound 355]	1	4	11	13	30	0	0	0	4.52 to 4.82
CC(=O)N[C@@H](CC(C)C)C(=O)N[C@H](C(=O)N[C@@H](Cc1ccccc1)C(=O)N[C@]1(C)CCCCCCC=CCCC[C@@](C)(C(=O)N[C@@H](CO)C(=O)N[C@@H](C)C(=O)N[C@@H](C)C(N)=O)NC(=O)[C@H](C2CCCC2)NC(=O)[C@H](CCC(N)=O)NC(=O)[C@H](C)NC(=O)[C@H](Cc2c[nH]c3ccccc23)NC(=O)[C@H](Cc2ccc(O)cc2)NC(=O)[C@H](CCC(=O)O)NC1=O)[C@@H](C)O (single isomer, unassigned) [compound 150]						−1	0	2	4.52 to 4.82
CC(=O)N[C@@H](CC(C)C)C(=O)N[C@H](C(=O)N[C@@H](Cc1ccccc1)C(=O)N[C@]1(C)CCCCCCC=CCCC[C@@](C)(C(=O)N[C@@H](C)C(=O)N[C@@H](C)C(=O)N[C@@H](C)C(=O)N[C@@H](C)C(=O)N[C@@H](C)C(=O)N[C@H](C)C(N)=O)NC(=O)[C@H](CC(C)C)NC(=O)[C@H](CCC(N)=O)NC(=O)[C@H](C)NC(=O)[C@H](Cc2c[nH]c3cc(Cl)ccc23)NC(=O)[C@H](Cc2ccc(O)cc2)NC(=O)[C@H](C)NC1=O)[C@@H](C)O (single isomer, unassigned) [compound 338]	1	5	23	20	29	0	0	1	> 5.30
CC(=O)N[C@@H](C)C(=O)N[C@@H](C)C(=O)N[C@@H](CC(C)C)C(=O)N[C@H](C(=O)N[C@@H](Cc1ccccc1)C(=O)N[C@]1(C)CCCCCCC=CCCC[C@@](C)(C(=O)N[C@@H](CO)C(=O)N[C@@H](C)C(=O)N[C@@H](C)C(=O)N[C@@H](C)C(=O)N[C@H](C)C(N)=O)NC(=O)[C@H](CC2CCC2)NC(=O)[C@H](CCC(N)=O)NC(=O)[C@H](C)NC(=O)[C@H](Cc2c[nH]c3ccccc23)NC(=O)[C@H](Cc2ccc(O)cc2)NC(=O)[C@H](CCC(=O)O)NC1=O)[C@@H](C)O (single isomer, unassigned) [compound 358]	1	2	3	6	24				4.52 to 4.82
CC(=O)N[C@@H](CC(C)C)C(=O)N[C@H](C(=O)N[C@@H](Cc1ccccc1)C(=O)N[C@]1(C)CCCCCCC=CCCC[C@@](C)(C(=O)N[C@@H](C)C(=O)N[C@H](C(=O)NCC(N)=O)C(C)C)NC(=O)[C@H](CC(C)C)NC(=O)[C@H](CCC(N)=O)NC(=O)[C@H](C)NC(=O)[C@H](Cc2c[nH]c3ccccc23)NC(=O)[C@H](Cc2ccc(O)cc2)NC(=O)[C@H](C)NC1=O)[C@@H](C)O (single isomer, unassigned) [compound 109]			4	16	25				> 5.30
CC(=O)N[C@@H](CC(C)C)C(=O)N[C@H](C(=O)N[C@@H](Cc1ccccc1)C(=O)N[C@]1(C)CCCCCCC=CCCC[C@@](C)(C(=O)N[C@@H](C)C(=O)N[C@@H](Cc2c[nH]cn2)C(=O)N[C@@H](Cc2ccccc2)C(=O)N[C@@H](C)C(N)=O)NC(=O)[C@H](CC(C)C)NC(=O)[C@H](CCC(N)=O)NC(=O)[C@H](C)NC(=O)[C@H](Cc2c[nH]c3ccccc23)NC(=O)[C@H](Cc2ccc(O)cc2)NC(=O)[C@H](C)NC1=O)[C@@H](C)O [compound 50] (Ac-LTF[R8]AYWAQL[S5]AHFA-NH2; staple 4-11)			8	29	29				> 5.30
CCCC[C@H](NC(=O)[C@H](C)NC(=O)[C@H](C)NC(=O)[C@]1(C)CCCC=CCCCCCC[C@@](C)(NC(=O)[C@H](Cc2ccccc2)NC(=O)[C@@H](NC(=O)[C@H](CC(C)C)NC(=O)CN(C)C)[C@@H](C)O)C(=O)N[C@@H](C)C(=O)N[C@@H](Cc2ccc(O)cc2)C(=O)N[C@@H](Cc2c[nH]c3ccccc23)C(=O)N[C@@H](C)C(=O)N[C@@H](CCC(N)=O)C(=O)N[C@@H](CC(C)C)C(=O)N1)C(=O)N[C@@H](C)C(N)=O (single isomer, unassigned) [compound 442]									> 5.30
CCCC[C@H](NC(=O)[C@H](C)NC(=O)[C@H](C)NC(=O)[C@]1(C)CCC/C=C/CCCCCC[C@@](C)(NC(=O)[C@H](Cc2ccccc2)NC(=O)[C@@H](NC(=O)[C@H](CC(C)C)NC(C)=O)[C@@H](C)O)C(=O)N[C@@H](C)C(=O)N[C@@H](Cc2ccc(O)cc2)C(=O)N[C@@](C)(Cc2c[nH]c3ccccc23)C(=O)N[C@@H](C)C(=O)N[C@@H](CCC(N)=O)C(=O)N[C@@H](CC(C)C)C(=O)N1)C(=O)N[C@@H](C)C(N)=O [compound 388]									4.52 to 4.82
CC(=O)N[C@@H](CC(C)C)C(=O)N[C@H](C(=O)N[C@@H](Cc1ccccc1)C(=O)N[C@]1(C)CCCCCCC=CCCC[C@@](C)(C(=O)N[C@@H](CO)C(=O)N[C@@H](C)C(=O)NC(C)(C)C(N)=O)NC(=O)[C@H](CC(C)C)NC(=O)[C@H](CCC(N)=O)NC(=O)[C@H](C)NC(=O)[C@H](Cc2c[nH]c3ccccc23)NC(=O)[C@H](Cc2ccc(O)cc2)NC(=O)[C@H](C)NC1=O)[C@@H](C)O [compound 10] (Ac-LTF[R8]AYWAQL[S5]SA[Aib]-NH2; staple 4-11)	1		1	17	32				4.82 to 5.30
CC[C@H](C)[C@H](NC(=O)[C@H](C)NC(=O)[C@H](C)NC(=O)[C@]1(C)CCCC=CCCCCCC[C@@](C)(NC(=O)[C@H](Cc2ccccc2)NC(=O)[C@@H](NC(=O)[C@H](CC(C)C)NC(=O)CN(C)C)[C@@H](C)O)C(=O)N[C@@H](CCC(=O)O)C(=O)N[C@@H](Cc2ccc(C(=O)O)cc2)C(=O)N[C@@H](Cc2c[nH]c3ccccc23)C(=O)N[C@@H](C)C(=O)N[C@@H](CCC(N)=O)C(=O)N[C@@H](CC2CCC2)C(=O)N1)C(=O)N[C@H](C)C(N)=O (single isomer, unassigned) [compound 440]									4.52 to 4.82
CC(C)C[C@H](NC(=O)CN(C)C)C(=O)N[C@H](C(=O)N[C@@H](Cc1ccccc1)C(=O)N[C@]1(C)CCCCCC/C=C/CCC[C@@](C)(C(=O)N[C@@H](C)C(=O)N[C@@H](C)C(=O)N[C@@H](C)C(=O)N[C@@H](C)C(=O)N[C@@H](C)C(=O)N[C@H](C)C(N)=O)NC(=O)[C@H](CC(C)C)NC(=O)[C@H](CCC(N)=O)NC(=O)[C@H](C)NC(=O)[C@H](Cc2c[nH]c3ccccc23)NC(=O)[C@H](Cc2ccc(O)cc2)NC(=O)[C@H](C)NC1=O)[C@@H](C)O [compound 437]									> 5.30
CCCC[C@H](NC(=O)[C@H](C)NC(=O)[C@H](C)NC(=O)[C@]1(C)CCCCCCCCCCC[C@@](C)(NC(=O)[C@H](Cc2ccccc2)NC(=O)[C@@H](NC(=O)[C@H](CC(C)C)NC(C)=O)[C@@H](C)O)C(=O)N[C@@H](C)C(=O)N[C@@H](Cc2ccc(O)cc2)C(=O)N[C@@H](Cc2c[nH]c3ccccc23)C(=O)N[C@@H](C)C(=O)N[C@@H](CCC(N)=O)C(=O)N[C@@H](CC(C)C)C(=O)N1)C(=O)N[C@@H](C)C(N)=O [compound 444]									> 5.30
CC(C)C[C@H](NC(=O)CN(C)C)C(=O)N[C@H](C(=O)N[C@@H](Cc1ccccc1)C(=O)N[C@]1(C)CCCCCCC=CCCC[C@@](C)(C(=O)N[C@@H](CO)C(=O)N[C@@H](C)C(=O)N[C@@H](C)C(N)=O)NC(=O)[C@H](CC2CCC2)NC(=O)[C@H](CCC(N)=O)NC(=O)[C@H](C)NC(=O)[C@H](Cc2c[nH]c3ccccc23)NC(=O)[C@H](Cc2ccc(O)cc2)NC(=O)[C@H](CCC(=O)O)NC1=O)[C@@H](C)O [compound 435]									4.52 to 4.82
CC(C)C[C@H](NC(=O)CN(C)C)C(=O)N[C@H](C(=O)N[C@@H](Cc1ccccc1)C(=O)N[C@]1(C)CCCCCCC=CCCC[C@@](C)(C(=O)N[C@@H](C)C(=O)N[C@@H](C)C(=O)N[C@@H](C)C(=O)N[C@@H](C)C(=O)N[C@@H](C)C(=O)N[C@H](C)C(N)=O)NC(=O)[C@H](CC(C)C)NC(=O)[C@H](CCC(N)=O)NC(=O)[C@H](C)NC(=O)[C@H](Cc2c[nH]c3ccccc23)NC(=O)[C@H](Cc2ccc(O)cc2)NC(=O)[C@H](C)NC1=O)[C@@H](C)O (single isomer, unassigned) [compound 436]									> 5.30
CCCC[C@H](NC(=O)[C@H](C)NC(=O)[C@H](C)NC(=O)[C@]1(C)CCCC=CCCCCCC[C@@](C)(NC(=O)[C@H](Cc2ccccc2)NC(=O)[C@@H](NC(=O)[C@H](CC(C)C)NC(C)=O)[C@@H](C)O)C(=O)N[C@@H](C)C(=O)N[C@@H](Cc2ccc(O)cc2)C(=O)N[C@@H](Cc2c[nH]c3ccccc23)C(=O)NC(C)(C)C(=O)N[C@@H](CCC(N)=O)C(=O)N[C@@H](CC(C)C)C(=O)N1)C(=O)N[C@@H](C)C(N)=O (single isomer, unassigned) [compound 390]									> 5.30
